We go through three compounds from US11696913B2, “Prolonged ectoparasite-controlling agent for animal” (MITSUI CHEMICALS AGRO, INC., priority 2017, dated 2023).

The structures appear in SMILES notation.

The test system of one assay is Spodoptera litura. The assay can be described thus: Insecticidal testing against common cutworm. Type of assay: in vivo. To be noted: foliar, 144 h, concentration 100 ppm, cabbage leaf dip, second-stage larvae, after 6 days, read-out: pesticidal rate. From the text: Insecticidal Testing Against Common Cutworm (Spodoptera litura)
In another assay the test system is Dermacentor variabilis. The assay can be described thus: In vitro contact test with adult hard ticks (Dermacentor variabilis). The following applies: read-out: acaricidal activity; for pest or weed control at 0.04 µg/cm2, 0.04 µg/cm2: dose 0.04 μg/cm^2, 48 h; for pest or weed control at 0.2 µg/cm2, 0.2 µg/cm2: dose 0.2 μg/cm^2, 48 h; for pest or weed control at 1 µg/cm2, 1 µg/cm2: dose 1 μg/cm^2, 48 h. Summed up:
(§1)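 Adult R. sanguineus, I. ricinus, D. variabilis or A. americanum nymphs exposed in glass vials coated with compound from acetone (900 ppm gives 5 μg/cm^2). Held 48 h at room temperature (R. sanguineus) or 21° C., 85% rel. hum.; then heated at 45-50° C. ≤5 min, motionless or uncoordinated ticks scored dead/moribund.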

Another assay has as its system Plutella xylostella. The assay can be described thus: Insecticidal testing against diamondback moth. Type of assay: in vivo. To be noted: foliar, 144 h, concentration 100 ppm, cabbage leaf dip, third-stage larvae, after 6 days, read-out: pesticidal rate. From the text: Insecticidal Testing Against Diamondback Moth (Plutella xylostella)
The next assay relates to Laodelphax striatellus. The assay can be described thus: Insecticidal testing against small brown planthopper. Type of assay: in vivo. To be noted: 144 h, concentration 100 ppm, sprayed rice seedlings, after 6 days, read-out: pesticidal rate. In outline: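 Acetone solution of compound at a set concentration sprayed onto rice seedlings, air-dried, then exposed to 10 planthoppers (one group). Held at 25° C; survival rate recorded after 6 days.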

In assay [1] the test system is Ctenocephalides felis. The assay can be described thus: In vitro contact test with fleas. The following applies: read-out: insecticidal activity; for pest or weed control at 0.04 µg/cm2, 0.04 µg/cm2: dose 0.04 μg/cm^2, dead or moribund fleas after 48 h; for pest or weed control at 0.2 µg/cm2, 0.2 µg/cm2: dose 0.2 μg/cm^2, dead or moribund fleas after 48 h; for pest or weed control at 1 µg/cm2, 1 µg/cm2: dose 1 μg/cm^2, dead or moribund fleas after 48 h. In outline:
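Adult male and female cat fleas (5-10 per tube) placed in glass tubes coated with compound from acetone solution (900 ppm gives 5 μg/cm^2), kept at room temperature and ambient humidity. After 48 h, motionless or uncoordinated fleas scored dead or moribund; activity expressed as % dead or moribund.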

The test system of a further assay is Amblyomma americanum. The assay can be described thus: In vitro contact test with hard ticks (Amblyomma americanum nymphs). To be noted: read-out: acaricidal activity; for pest or weed control at 0.2 µg/cm2, 0.2 µg/cm2: dose 0.2 μg/cm^2, 48 h; for pest or weed control at 1 µg/cm2, 1 µg/cm2: dose 1 μg/cm^2, 48 h. In outline: as §1
Another assay deals with Ixodes ricinus. In words: In vitro contact test with adult hard ticks (Ixodes ricinus). To be noted: read-out: acaricidal activity; for pest or weed control at 0.2 µg/cm2, 0.2 µg/cm2: dose 0.2 μg/cm^2, 48 h; for pest or weed control at 1 µg/cm2, 1 µg/cm2: dose 1 μg/cm^2, 48 h; for pest or weed control at 5 µg/cm2, 5 µg/cm2: dose 5 μg/cm^2, 48 h. Summed up:
as §1

In another assay the test system is Rhipicephalus sanguineus. In words: In vitro contact test with adult hard ticks (Rhipicephalus sanguineus). The following applies: read-out: acaricidal activity; for pest or weed control at 0.04 µg/cm2, 0.04 µg/cm2: dose 0.04 μg/cm^2, 48 h; for pest or weed control at 0.2 µg/cm2, 0.2 µg/cm2: dose 0.2 μg/cm^2, 48 h; for pest or weed control at 1 µg/cm2, 1 µg/cm2: dose 1 μg/cm^2, 48 h. Summed up: as §1

Assay [2] concerns Ctenocephalides felis. The assay can be described thus: Ctenocephalides felis in-vitro feeding test with fleas (CTECFE oral). To be noted: 48 hours, read-out: insecticidal feeding activity; for pest or weed control at 0.16 ppm: dose 0.16 ppm in citrated cattle blood; for pest or weed control at 0.8 ppm: dose 0.8 ppm in citrated cattle blood; for pest or weed control at 4 ppm: dose 4 ppm in citrated cattle blood. Summed up: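 About 20 unfed adult cat fleas fed through parafilm on citrated cattle blood containing test substance (DMSO solution diluted in blood), held at about 37° C. Kill rate scored after 48 hours, 100% meaning all fleas dead.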

In assay [3] the test system is Rhipicephalus (Boophilus) microplus. In words: In vitro injection test with Rhipicephalus (Boophilus) microplus (BOOPMI Inj). To be noted: 168 h, laid fertile eggs after 7 days, read-out: acaricidal activity; for pest or weed control at 32 ng: dose 0.032 μg/animal injected; for pest or weed control at 0.00016 mg: dose 0.16 μg/animal injected; for pest or weed control at 0.0008 mg: dose 0.8 μg/animal injected. In outline: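 Test substance in DMSO; 1 μl injected into abdomen of each of 5 engorged adult female ticks, then held at 28° C., 85% rel. hum. Activity scored after 7 days from laying of fertile eggs: 100% = no eggs or all infertile, 0% = all eggs fertile.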

Turning to `O=C(Nc1cccc(C(=O)Nc2c(I)cc(C(F)(C(F)(F)F)C(F)(F)F)cc2OC(F)F)c1F)c1ccc(F)cc1` [Compound 92], the pest or weed control at 100 ppm in the assay on Spodoptera litura is at least 70%. In the assay with Dermacentor variabilis, the pest or weed control at 0.04 µg/cm2, 0.04 µg/cm2 is 90% and the pest or weed control at 0.2 µg/cm2, 0.2 µg/cm2 stood at 90%. Moreover, the pest or weed control at 100 ppm in the assay with Plutella xylostella is at least 70%. Besides, the pest or weed control at 100 ppm in the assay with Laodelphax striatellus is at least 70%. Further, in the assay with Ctenocephalides felis [1], the pest or weed control at 0.04 µg/cm2, 0.04 µg/cm2 amounted to 95%; the pest or weed control at 0.2 µg/cm2, 0.2 µg/cm2 stood at 95%; the pest or weed control at 1 µg/cm2, 1 µg/cm2 stood at 95%. Also, in the assay on Amblyomma americanum, the pest or weed control at 0.2 µg/cm2, 0.2 µg/cm2 worked out at 90% and the pest or weed control at 1 µg/cm2, 1 µg/cm2 was 90%. Moreover, in the assay on Ixodes ricinus, the pest or weed control at 0.2 µg/cm2, 0.2 µg/cm2 amounted to 90%; the pest or weed control at 1 µg/cm2, 1 µg/cm2 worked out at 90%; the pest or weed control at 5 µg/cm2, 5 µg/cm2 is 90%. In the assay on Rhipicephalus sanguineus, the pest or weed control at 0.04 µg/cm2, 0.04 µg/cm2 was found to be 90%; the pest or weed control at 0.2 µg/cm2, 0.2 µg/cm2 turned out to be 90%; the pest or weed control at 1 µg/cm2, 1 µg/cm2 is 90%. Further, the pest or weed control at 0.032 ppm with Ctenocephalides felis [2] (dose 0.032 ppm in citrated cattle blood) stood at 95%. In the assay on Ctenocephalides felis [2], the pest or weed control at 0.16 ppm turned out to be 95%, the pest or weed control at 0.8 ppm was 95% and the pest or weed control at 4 ppm was determined as 95%. Besides, in assay [3] (dose 0.0064 μg/animal injected), the pest or weed control at 6.4 ng was 100%. Also, in assay [3], the pest or weed control at 32 ng worked out at 100%, the pest or weed control at 0.00016 mg was 100% and the pest or weed control at 0.0008 mg turned out to be 100%.
As for `O=C(Nc1cccc(C(=O)Nc2c(Br)cc(C(F)(C(F)(F)F)C(F)(F)C(F)(F)F)cc2OC(F)(F)F)c1F)c1ccc(F)cc1` (stereo not drawn) [Compound 95], the pest or weed control at 100 ppm in the assay on Spodoptera litura was at least 70%. In addition, in the assay on Dermacentor variabilis, the pest or weed control at 1 µg/cm2, 1 µg/cm2 amounted to 90%. In the assay on Plutella xylostella, the pest or weed control at 100 ppm is at least 70%. In the assay with Laodelphax striatellus, the pest or weed control at 100 ppm is at least 70%. Besides, in the assay on Ctenocephalides felis [1], the pest or weed control at 0.2 µg/cm2, 0.2 µg/cm2 amounted to 95% and the pest or weed control at 1 µg/cm2, 1 µg/cm2 was determined as 95%. In addition, the pest or weed control at 0.04 µg/cm2, 0.04 µg/cm2 in the assay on Amblyomma americanum (dose 0.04 μg/cm^2, 48 h) was 90%. Besides, in the assay with Amblyomma americanum, the pest or weed control at 0.2 µg/cm2, 0.2 µg/cm2 came to 90% and the pest or weed control at 1 µg/cm2, 1 µg/cm2 was 90%. For the same compound, in the assay with Ixodes ricinus, the pest or weed control at 0.2 µg/cm2, 0.2 µg/cm2 was 90%; the pest or weed control at 1 µg/cm2, 1 µg/cm2 came out at 90%; the pest or weed control at 5 µg/cm2, 5 µg/cm2 turned out to be 90%. Also, in the assay on Rhipicephalus sanguineus, the pest or weed control at 0.04 µg/cm2, 0.04 µg/cm2 turned out to be 90%; the pest or weed control at 0.2 µg/cm2, 0.2 µg/cm2 was 90%; the pest or weed control at 1 µg/cm2, 1 µg/cm2 was 90%. In the assay on Ctenocephalides felis [2], the pest or weed control at 0.16 ppm was found to be 95%, the pest or weed control at 0.8 ppm is 95% and the pest or weed control at 4 ppm was 95%. In assay [3], the pest or weed control at 32 ng amounted to 100%, the pest or weed control at 0.00016 mg turned out to be 100% and the pest or weed control at 0.0008 mg was 100%.
For the compound `O=C(Nc1cccc(C(=O)Nc2c(I)cc(C(F)(C(F)(F)F)C(F)(F)F)cc2OC(F)(F)F)c1F)c1ccc(F)c(F)c1` [Compound 97], the pest or weed control at 100 ppm in the assay on Spodoptera litura, in the assay with Plutella xylostella and in the assay with Laodelphax striatellus was at least 70% in each case. Further, the results for the pest or weed control at 0.04 µg/cm2, 0.04 µg/cm2 in the assay with Dermacentor variabilis and in the assay with Ctenocephalides felis [1] were 90% and 95%, respectively. Further, the pest or weed control at 0.2 µg/cm2, 0.2 µg/cm2 was determined as 90% with Dermacentor variabilis; 95% in the assay on Ctenocephalides felis [1]; 90% in the assay on Amblyomma americanum; 90% in the assay on Ixodes ricinus; 90% with Rhipicephalus sanguineus. The pest or weed control at 1 µg/cm2, 1 µg/cm2 with Dermacentor variabilis is 90%; in the assay with Ctenocephalides felis [1] it was 95%; in the assay with Amblyomma americanum, 90%; with Ixodes ricinus it was 90%; in the assay on Rhipicephalus sanguineus it was 90%. In the assay on Ixodes ricinus, the pest or weed control at 5 µg/cm2, 5 µg/cm2 worked out at 90%. Further, the pest or weed control at 0.16 ppm with Ctenocephalides felis [2] was 95%. In addition, in the assay with Ctenocephalides felis [2], the pest or weed control at 0.8 ppm was 95%. Besides, the pest or weed control at 4 ppm with Ctenocephalides felis [2] amounted to 95%. The pest or weed control at 0.00016 mg in assay [3] worked out at 100%. For the same compound, the pest or weed control at 0.0008 mg in assay [3] was determined as 100%.
